Assay results: ChEMBL document CHEMBL3885881, “DrugMatrix”

Organism: Rattus norvegicus
Test: DrugMatrix - Regimen: Daily Repeat
Type: toxicity, organism-based, Sprague-Dawley
Parameters: regimen Daily Repeat, gender Male, age 6-8 weeks
Conditions: in vivo, po, route oral GAVAGE, vehicle .5 % CMC; for BASOPHIL / EOSINOPHIL / ERYTHROCYTE COUNT / HEMATOCRIT / HEMOGLOBIN / LEUKOCYTE COUNT / LYMPHOCYTE / MEAN CORPUSCULAR HEMOGLOBIN / MEAN CORPUSCULAR HEMOGLOBIN CONCENTRATION / MEAN CORPUSCULAR VOLUME / MONOCYTE / NEUTROPHIL / PLATELET COUNT: tissue Blood; for ALANINE AMINOTRANSFERASE / ALBUMIN / ALKALINE PHOSPHATASE / ASPARTATE AMINOTRANSFERASE / BLOOD UREA NITROGEN / CHLORIDE / CHOLESTEROL / CREATINE PHOSPHOKINASE / CREATININE / GLUCOSE / PHOSPHORUS / POTASSIUM / SODIUM / TOTAL BILIRUBIN / TOTAL PROTEIN: tissue Plasma
[1] = 0 mg/kg, 72 h, dose level Control, time 3 day
[2] = 0 mg/kg, 120 h, dose level Control, time 5 day
[3] = 59 mg/kg, 72 h, dose level Low, time 3 day
[4] = 59 mg/kg, 120 h, dose level Low, time 5 day

## CC[C@@H](CO)NCCN[C@@H](CC)CO [ETHAMBUTOL]
[1]
  BASOPHIL: 0%
  EOSINOPHIL: 0.33%
  ERYTHROCYTE COUNT: 6.2 x10E6/uL
  HEMATOCRIT: 38.08%
  HEMOGLOBIN: 14.92 G/DL
  LEUKOCYTE COUNT: 11.13 x10E3/uL
  LYMPHOCYTE: 76%
  MEAN CORPUSCULAR HEMOGLOBIN: 24.1 pg
  MEAN CORPUSCULAR HEMOGLOBIN CONCENTRATION: 39.17 G/DL
  MEAN CORPUSCULAR VOLUME: 61.48 fL
  MONOCYTE: 3.83%
  NEUTROPHIL: 19.83%
  PLATELET COUNT: 1327.5 x10E3/uL
  ALANINE AMINOTRANSFERASE: 40.17 u/L
  ALBUMIN: 4.07 G/DL
  ALKALINE PHOSPHATASE: 372 u/L
  ASPARTATE AMINOTRANSFERASE: 67.17 u/L
  BLOOD UREA NITROGEN: 18.83 mg/dL
  CHLORIDE: 105.17 MEQ/L
  CHOLESTEROL: 78.17 mg/dL
  CREATINE PHOSPHOKINASE: 149.17 u/L
  CREATININE: 0.57 mg/dL
  GLUCOSE: 185.17 mg/dL
  PHOSPHORUS: 11.43 mg/dL
  POTASSIUM: 6.78 MEQ/L
  SODIUM: 152.83 MEQ/L
  TOTAL BILIRUBIN: 0.4 mg/dL
  TOTAL PROTEIN: 6.87 G/DL
[2]
  BASOPHIL: 0%
  EOSINOPHIL: 0%
  ERYTHROCYTE COUNT: 6.05 x10E6/uL
  HEMATOCRIT: 36.55%
  HEMOGLOBIN: 14.7 G/DL
  LEUKOCYTE COUNT: 11.8 x10E3/uL
  LYMPHOCYTE: 86.83%
  MEAN CORPUSCULAR HEMOGLOBIN: 24.37 pg
  MEAN CORPUSCULAR HEMOGLOBIN CONCENTRATION: 40.32 G/DL
  MEAN CORPUSCULAR VOLUME: 60.47 fL
  MONOCYTE: 0.83%
  NEUTROPHIL: 12.33%
  PLATELET COUNT: 1177 x10E3/uL
  ALANINE AMINOTRANSFERASE: 41.83 u/L
  ALBUMIN: 3.75 G/DL
  ALKALINE PHOSPHATASE: 377.5 u/L
  ASPARTATE AMINOTRANSFERASE: 60.83 u/L
  BLOOD UREA NITROGEN: 16 mg/dL
  CHLORIDE: 105.67 MEQ/L
  CHOLESTEROL: 67.83 mg/dL
  CREATINE PHOSPHOKINASE: 120.33 u/L
  CREATININE: 0.6 mg/dL
  GLUCOSE: 167.67 mg/dL
  PHOSPHORUS: 10.03 mg/dL
  POTASSIUM: 6.68 MEQ/L
  SODIUM: 150.5 MEQ/L
  TOTAL BILIRUBIN: 0.57 mg/dL
  TOTAL PROTEIN: 6.25 G/DL
[3]
  BASOPHIL: 0%
  EOSINOPHIL: 0.67%
  ERYTHROCYTE COUNT: 6.09 x10E6/uL
  HEMATOCRIT: 36.33%
  HEMOGLOBIN: 14.2 G/DL
  LEUKOCYTE COUNT: 11.65 x10E3/uL
  LYMPHOCYTE: 88%
  MEAN CORPUSCULAR HEMOGLOBIN: 23.7 pg
  MEAN CORPUSCULAR HEMOGLOBIN CONCENTRATION: 39.55 G/DL
  MEAN CORPUSCULAR VOLUME: 59.63 fL
  MONOCYTE: 0.33%
  NEUTROPHIL: 11%
  PLATELET COUNT: 1231 x10E3/uL
  ALANINE AMINOTRANSFERASE: 35.33 u/L
  ALBUMIN: 3.63 G/DL
  ALKALINE PHOSPHATASE: 327.67 u/L
  ASPARTATE AMINOTRANSFERASE: 58.33 u/L
  BLOOD UREA NITROGEN: 11.67 mg/dL
  CHLORIDE: 104.33 MEQ/L
  CHOLESTEROL: 68 mg/dL
  CREATINE PHOSPHOKINASE: 185 u/L
  CREATININE: 0.57 mg/dL
  GLUCOSE: 165.33 mg/dL
  PHOSPHORUS: 12.53 mg/dL
  POTASSIUM: 6.5 MEQ/L
  SODIUM: 149.67 MEQ/L
  TOTAL BILIRUBIN: 0.27 mg/dL
  TOTAL PROTEIN: 5.9 G/DL
[4]
  BASOPHIL: 0%
  EOSINOPHIL: 0%
  ERYTHROCYTE COUNT: 6.14 x10E6/uL
  HEMATOCRIT: 38.6%
  HEMOGLOBIN: 15.1 G/DL
  LEUKOCYTE COUNT: 11.85 x10E3/uL
  LYMPHOCYTE: 89.33%
  MEAN CORPUSCULAR HEMOGLOBIN: 24.7 pg
  MEAN CORPUSCULAR HEMOGLOBIN CONCENTRATION: 39.2 G/DL
  MEAN CORPUSCULAR VOLUME: 63.03 fL
  MONOCYTE: 0.67%
  NEUTROPHIL: 10%
  PLATELET COUNT: 1247.67 x10E3/uL
  ALANINE AMINOTRANSFERASE: 27.67 u/L
  ALBUMIN: 3.57 G/DL
  ALKALINE PHOSPHATASE: 273.67 u/L
  ASPARTATE AMINOTRANSFERASE: 55 u/L
  BLOOD UREA NITROGEN: 11.33 mg/dL
  CHLORIDE: 105.67 MEQ/L
  CHOLESTEROL: 89 mg/dL
  CREATINE PHOSPHOKINASE: 135.33 u/L
  CREATININE: 0.5 mg/dL
  GLUCOSE: 157.67 mg/dL
  PHOSPHORUS: 11.8 mg/dL
  POTASSIUM: 6.47 MEQ/L
  SODIUM: 151.33 MEQ/L
  TOTAL BILIRUBIN: 0.2 mg/dL
  TOTAL PROTEIN: 6 G/DL
